Article PMC10648349, “Aromatic Diboronic Acids as Effective KPC/AmpC Inhibitors” (Molecules, 2023)
In brackets after ≈: the same amount, converted by molar mass.

Columns and labels:
[1] = test system: K. pneumoniae ATCC BAA 1705 KPC-2-positive; assay: combination disc test CDT-KPC; type: cell-based; conditions: Klebsiella pneumoniae, BAA1705; agent 0.3 mg per disc; read-out: Diameter of inhibition zone, MEM-10 disc with agent
[2] = test system: C. guilliermondii IBA 155; assay: antifungal activity (disc-diffusion, MIC, MFC); type: cell-based, Candida guilliermondii; conditions: Meyerozyma guilliermondii, IBA155; fluconazole by Etest
Method: (§1) Direct antimicrobial activity against Gram-negative and Gram-positive bacterial strains, as well as against yeast, was examined as previously described by the disc-diffusion test, the MIC determination assay, the MBC (for bacteria), and the MFC (for yeasts) determination tests. All the above-mentioned tests were performed according to EUCAST [71, 72] and CLSI [73, 74, 75, 76, 77] recommendations. The following reference agents were used: nitrofurantoin (for Gram-negative rods), linezolid (for Gram-positive bacteria), and fluconazole (in the case of fungi). The new aromatic diboronic acids were dissolved in DMSO (Sigma, St. Louis, MO, USA). In the disc-diffusion test, the concentration of new agents was 0.4 mg per disc.

[3] = test system: K. pneumoniae ATCC 700603 ESBL-positive; assay: combination disc test CDT-ESBL; type: cell-based; conditions: Klebsiella pneumoniae, ATCC700603; agent 0.3 mg per disc; read-out: Diameter of inhibition zone, CAZ-30 disc with agent
[4] = test system: S. epidermidis ATCC 12228; assay: direct antimicrobial activity (disc-diffusion, MIC, MBC); type: cell-based; conditions: Staphylococcus epidermidis, ATCC12228
Method: as §1

S. aureus ATCC 6538P = assay: as above; type: cell-based; conditions: Staphylococcus aureus, ATCC6538P
Method: as §1

E. faecium ATCC 6057 = assay: as above; type: cell-based; conditions: Enterococcus faecium, ATCC6057
Method: as §1

[5] = test system: S. aureus ATCC 43300 MRSA; assay: as above; type: cell-based; conditions: Staphylococcus aureus
Method: as §1

E. faecalis ATCC 29212 = assay: as above; type: cell-based; conditions: Enterococcus faecalis, ATCC29212
Method: as §1

C. albicans ATCC 90028 = assay: antifungal activity (disc-diffusion, MIC, MFC); type: cell-based; conditions: Candida albicans, ATCC90028; fluconazole by Etest
Method: as §1

C. tropicalis IBA 171 = assay: antifungal activity (disc-diffusion, MIC, MFC); type: cell-based; conditions: Candida tropicalis, IBA171; fluconazole by Etest
Method: as §1

C. tropicalis ATCC 750 = assay: antifungal activity (disc-diffusion, MIC, MFC); type: cell-based; conditions: Candida tropicalis, ATCC750; fluconazole by Etest
Method: as §1

S. cerevisiae ATCC 9763 = assay: antifungal activity (disc-diffusion, MIC, MFC); type: cell-based; conditions: Saccharomyces cerevisiae, ATCC9763; fluconazole by Etest
Method: as §1

[6] = MTT-based viability assay; type: cell-based; conditions: human, MRC-5 human fibroblasts, 72 h, read-out: Viability of MRC-5 cells (% of viable cells ± SD)
Method: MRC-5 human fibroblasts (ECACC) were cultured in MEME, Minimum Essential Medium Eagle (Merck) supplemented with 10% fetal bovine serum (Merck), 2 mM l-glutamine, antibiotics (100 U/mL penicillin, 100 μg/mL streptomycin, Merck) and 1% non-essential amino acids (Merck). Cells were grown in 75 cm^2 cell culture flasks (Sarstedt) in a humidified atmosphere of CO2/air (5/95%) at 37 °C. MTT-based viability assay was conducted as described previously. Optical densities were measured at 570 nm using a BioTek microplate reader. All measurements were carried out in three replicates, and the results were expressed as a percent of viable cells versus control cells.

E. coli 76 KPC-2(+) = assay: MIC of tested agent alone, microdilution; type: cell-based; conditions: Escherichia coli; read-out: MIC of agent alone
Method: (§2) To examine the ability of tested agents to inhibit various carbapenemases and AmpC-enzymes, their synergy with antibiotics against β-lactamase-producing strains was assessed by checkerboard microdilution assay, with slight modification. Checkerboards were prepared in microtiter plates, with seven two-fold dilutions of β-lactams (1–64 mg/L) in the rows and three two-fold dilutions of tested agents and PBA (4–16 mg/L) in the columns. Tested agents’ concentrations were limited to the concentrations at which the newest commercially available BLIs (vaborbactam, relebactam, and avibactam) are used in susceptibility testing. Plates were inoculated and incubated as in the MIC microdilution assay. Parallel, MICs of tested agents and PBA alone were determined by the microdilution assay. Following the incubation, antibiotic MICs in the presence of each agent’s concentration were determined. Moreover, for the first well without growth found in each checkerboard row and column along the growth/non-growth interface, the fractional inhibitory concentration index (FICI) was calculated using the formula below:FICI = [(MIC of antibiotic in combination)/(MIC of antibiotic alone)] + [(MIC of the tested agent in combination)/(MIC of tested agent alone)].

[7] = test system: K. pneumoniae 81 KPC-3(+); assay: MIC of tested agent alone, microdilution; type: cell-based; conditions: Klebsiella pneumoniae; read-out: MIC of agent alone
Method: as §2

[8] = test system: P. aeruginosa MUW 700 AmpC(+); assay: MIC of tested agent alone, microdilution; type: cell-based; conditions: Pseudomonas aeruginosa; read-out: MIC of agent alone
Method: as §2

E. coli 77 CMY-2(+) = assay: MIC of tested agent alone, microdilution; type: cell-based; conditions: Escherichia coli; read-out: MIC of agent alone
Method: as §2

[9] = test system: K. pneumoniae ATCC BAA-1705 KPC-2(+); assay: MIC of tested agent alone, microdilution; type: cell-based; conditions: Klebsiella pneumoniae, ATCCBAA1705; read-out: MIC of agent alone
Method: as §2

[10] = test system: K. pneumoniae 83 KPC-3(+), CTX-M-3(+); assay: MIC of tested agent alone, microdilution; type: cell-based; conditions: Klebsiella pneumoniae; read-out: MIC of agent alone
Method: as §2

B. subtilis ATCC 6633 = assay: direct antimicrobial activity (disc-diffusion); type: cell-based; conditions: Bacillus subtilis, ATCC6633; 0.4 mg per disc, 9 mm disc (linezolid 0.03 mg, 6 mm disc); - no zone; read-out: Diameter of inhibition zone
Method: as §1

[11] = test system: P. aeruginosa MUW 700 cAmpC-positive; assay: combination disc test CDT-AmpC; type: cell-based; conditions: Pseudomonas aeruginosa; agent 0.3 mg per disc; read-out: Diameter of inhibition zone, CAZ-30 disc with agent
C. krusei ATCC 6258 = assay: antifungal activity (disc-diffusion, MIC, MFC); type: cell-based, Candida krusei; conditions: Pichia kudriavzevii, ATCC6258; fluconazole by Etest
Method: as §1

[12] = test system: C. parapsilosis ATCC 22019; assay: antifungal activity (disc-diffusion, MIC, MFC); type: cell-based, Candida parapsilosis; conditions: Lodderomyces parapsilosis, ATCC22019; fluconazole by Etest
Method: as §1

[13] = test system: E. coli 77 CMY-2-positive; assay: combination disc test CDT-AmpC; type: cell-based; conditions: Escherichia coli; agent 0.3 mg per disc; read-out: Diameter of inhibition zone, CAZ-30 disc with agent
AmpC producers = assay: microdilution with ceftazidime; type: cell-based
Method: as §2
(§3) For calculations, all off-scale MICs were converted to the next-highest doubling concentration. Subsequently, both the average and the lowest FICI were interpreted. The interpretation was as follows: FICI ≤ 0.5, synergy; 0.5 < FICI ≤ 4, indifference and FICI > 4, antagonism. Primarily, examined combinations consisted of meropenem (Pol-Aura, Morag, Poland) plus tested agents against carbapenemases-producing strains and ceftazidime (Pol-Aura, Morag, Poland) plus tested agents against AmpC-producing strains. For agents that reduced meropenem MIC at least 4-fold for at least two tested strains, similar assays were performed with imipenem (Pol-Aura, Morag, Poland) and ertapenem (Pol-Aura, Morag, Poland).

[14] = test system: P. aeruginosa MUW 700 cAmpC-positive; assay: checkerboard microdilution, antibiotic plus tested agent; type: cell-based, Pseudomonas aeruginosa
Method: as §2, §3

[15] = test system: E. coli 77 CMY-2-positive; assay: as above; type: cell-based, Escherichia coli
Method: as §2, §3

[16] = test system: K. pneumoniae ATCC BAA-1705 KPC-2-positive; assay: as above; type: cell-based, Klebsiella pneumoniae; conditions: Klebsiella pneumoniae, ATCCBAA1705; read-out: MIC of ertapenem alone
Method: as §2, §3

[17] = test system: K. pneumoniae 83 KPC-3-positive, CTX-M-3-positive; assay: as above; type: cell-based, Klebsiella pneumoniae; conditions: Klebsiella pneumoniae; read-out: MIC of ertapenem alone
Method: as §2, §3

[18] = test system: K. pneumoniae 81 KPC-3-positive; assay: as above; type: cell-based, Klebsiella pneumoniae; conditions: Klebsiella pneumoniae; read-out: MIC of ertapenem alone
Method: as §2, §3

KPC producers = assay: microdilution with carbapenems; type: cell-based; conditions: strains used in this study
Method: as §2, §3

[19] = test system: E. coli 76 KPC-2-positive; assay: checkerboard microdilution, antibiotic plus tested agent; type: cell-based, Escherichia coli; conditions: Escherichia coli; read-out: MIC of ertapenem alone
Method: as §2, §3

[20] = 0.4 mg per disc, 9 mm disc (linezolid 0.03 mg, 6 mm disc), - no zone, read-out: Diameter of inhibition zone

| MIC [2] [µg/mL] | MIC [4] [µg/mL] | MIC (S. aureus ATCC 6538P) [µg/mL] | MIC (E. faecium ATCC 6057) [µg/mL] | MIC [5] [µg/mL] | MIC (E. faecalis ATCC 29212) [µg/mL] | MIC (C. albicans ATCC 90028) [µg/mL] | MIC (C. tropicalis IBA 171) [µg/mL] | MIC (C. tropicalis ATCC 750) [µg/mL] | MIC (S. cerevisiae ATCC 9763) [µg/mL] | MIC (E. coli 76 KPC-2(+)) [µg/mL] | MIC [7] [µg/mL] | MIC [8] [µg/mL] | MIC (E. coli 77 CMY-2(+)) [µg/mL] | MIC [9] [µg/mL] | Compound | zone of inhibition at 300 µg/disc [1] [mm] | zone of inhibition at 300 µg/disc [3] [mm] | viability at 72 h, 12.5 mg/L [6] [%] | viability at 72 h, 25 mg/L [6] [%] | viability at 72 h, 50 mg/L [6] [%] | further results |
| --- | --- | --- | --- | --- | --- | --- | --- | --- | --- | --- | --- | --- | --- | --- | --- | --- | --- | --- | --- | --- | --- |
| 200 (≈ 841 µM) | 200 (≈ 841 µM) | 200 (≈ 841 µM) | 200 (≈ 841 µM) | 400 (≈ 1680 µM) | 200 (≈ 841 µM) | 100 (≈ 421 µM) | > 400 | > 400 | 200 (≈ 841 µM) | > 400 | > 400 | > 400 | > 400 | > 400 | OB(O)c1c(F)c(F)c(F)c(F)c1B(O)O [3d] | 6 | 15 | 91.3 ± 7.4 | 100 ± 7.7 | 77.7 ± 15.5 | zone of inhibition at 0.4 mg/disc [4, 20]: 21 mm; zone of inhibition at 0.4 mg/disc (S. aureus ATCC 6538P; [20]): 20 mm; zone of inhibition at 0.4 mg/disc (E. faecium ATCC 6057; [20]): 16 mm; zone of inhibition at 0.4 mg/disc [5, 20]: 18 mm; zone of inhibition at 0.4 mg/disc (E. faecalis ATCC 29212; [20]): 12 mm; MIC [10]: > 400 µg/mL; zone of inhibition at 0.4 mg/disc (B. subtilis ATCC 6633): 12 mm; zone of inhibition at 300 µg/disc [11]: 14 mm; MIC (C. krusei ATCC 6258): 50 µg/mL (≈ 210 µM); MIC [12]: > 400 µg/mL; zone of inhibition at 300 µg/disc [13]: 21 mm |
| > 400 | > 400 | 400 (≈ 1860 µM) | > 400 | > 400 | 200 (≈ 928 µM) | 400 (≈ 1860 µM) | > 400 | > 400 | > 400 | > 400 | > 400 | > 400 | > 400 | > 400 | OB(O)c1cc(B(O)O)c(B(O)O)s1 [5c, thiophene-2,3,5-triboronic acid] | 6 | 16 | 102 ± 3.4 | 97.9 ± 1.4 | 85.6 ± 0.7 | ceftazidime MIC reduction, up to (AmpC producers; agent 4 mg/L): ≤ 2 fold; ceftazidime MIC reduction, up to (AmpC producers; agent 8 mg/L): up to 4 fold; ceftazidime MIC reduction, up to (AmpC producers; agent 16 mg/L): ≤ 8 fold; MIC [10]: > 400 µg/mL; Average FICI with ceftazidime [14]: 0.43; Interpretation of the average FICI with ceftazidime [14]: S (FICI ≤ 0.5, synergy); Interpretation of the lowest FICI with ceftazidime [14]: S (FICI ≤ 0.5, synergy); The lowest FICI with ceftazidime [14]: 0.27; zone of inhibition at 300 µg/disc [11]: 21 mm; MIC (C. krusei ATCC 6258): > 400 µg/mL; MIC [12]: > 400 µg/mL; zone of inhibition at 300 µg/disc [13]: 22 mm; Average FICI with ceftazidime [15]: 0.43; The lowest FICI with ceftazidime [15]: 0.27 |
|  |  |  |  |  |  |  |  |  |  |  |  |  |  |  | C[C@@H](O)[C@H]1C(=O)N2C(C(=O)O)=C(S[C@@H]3CN[C@H](C(=O)Nc4cccc(C(=O)O)c4)C3)[C@H](C)[C@H]12 [ERT, ertapenem, reference compound] |  |  |  |  |  | MIC [16]: 64 µg/mL; MIC [17]: 64 µg/mL; MIC [18]: 32 µg/mL; MIC range of ertapenem alone (KPC producers): 32 to 256 µg/mL; MIC [19]: 256 µg/mL |
